According to patent US11965126B2, “Flame retardant for thermosetting resin including aromatic phosphoric acid ester, thermosetting resin composition including same, and cured material and application of same” (priority 2018, dated 2024):
Where two headings read alike, the source gives them in different places.

Test: Solvent solubility of flame retardants
Format: physicochemical
Settings: for Solvent solubility compared with FR4 and FR5: comparison with traditionally-known phosphorus-type flame retardants FR4 and FR5
Procedure: 5 g of a flame retardant was added repeatedly to 100 mL of the following respective solvents at a temperature of 20° C. until the undissolved flame retardant was detected; and a largest amount of the flame retardant dissolved was measured. This largest amount was considered to be solvent solubility. • Solvents: toluene, methyl ethyl ketone (MEK), and propylene glycol monomethyl ether (PM) Materials for Synthesizing Aromatic Phosphoric Acid Esters
Flame retardants FR1 to FR4 as the flame retardants for thermosetting resin were evaluated for solvent solubility by the above method.

[1] = methyl ethyl ketone, 20° C., largest amount dissolved, added in 5 g portions
[2] = propylene glycol monomethyl ether, 20° C., largest amount dissolved, added in 5 g portions
[3] = toluene, 20° C., largest amount dissolved, added in 5 g portions

SMILES | Solvent solubility, MEK | Solvent solubility, PM | Solvent solubility, Toluene | Solvent solubility compared with FR4 and FR5 | Solvent solubility, MEK [1] | Solvent solubility, PM [2] | Solvent solubility, Toluene [3]
Cc1cccc(C)c1OP(=O)(Oc1cccc(OP(=O)(Oc2c(C)cccc2C)Oc2c(C)cccc2C)c1)Oc1c(C)cccc1C [FR3, 1,3-phenylenebis(di-2,6-xylyl phosphate), reference compound] | 55 g/100 mL | 10 g/100 mL | 75 g/100 mL | – | – | – | –
Cc1cccc(C)c1OP(=O)(Oc1ccc(C2(c3ccc(OP(=O)(Oc4c(C)cccc4C)Oc4c(C)cccc4C)cc3)CC(C)CC(C)(C)C2)cc1)Oc1c(C)cccc1C (centres unmarked) [FR1] | – | – | – | superior in solvent solubility | 135 g/100 mL | 85 g/100 mL | 140 g/100 mL
O=[PH]1Oc2ccccc2-c2ccccc21 (centres unmarked) [FR5, 9,10-dihydro-9-oxa-10-phosphaphenanthrene-10-oxide, reference compound] | – | – | – | – | 5 g/100 mL | 15 g/100 mL | <5 g/100 mL
Cc1cccc(C)c1OP(=O)(Oc1ccc(C2(c3ccc(OP(=O)(Oc4c(C)cccc4C)Oc4c(C)cccc4C)cc3)CCCCCCCCCCC2)cc1)Oc1c(C)cccc1C [FR2] | – | – | – | superior in solvent solubility | 50 g/100 mL | 10 g/100 mL | 130 g/100 mL
